ChEMBL document CHEMBL1909046, “DrugMatrix in vitro pharmacology data”

Key:
[1] = DRUGMATRIX: beta-Lactamase enzyme inhibition (substrate: Nitrocefin); parameters: species or system Bacillus cereus; details: Not Active = under 50% inhibition at 10 µM
[2] = target: Cannabinoid receptor 1 (Homo sapiens, UniProt P21554); assay type: cell membranes, Chem-1, Membrane; details: chem-1; note: in other assays of this panel Not Active means under 50% inhibition at 10 µM
[3] = target: Melanocortin receptor 3 (Homo sapiens, UniProt P41968); assay type: cell membranes, HEK293, Membrane; details: hek293; note: in other assays of this panel Not Active means under 50% inhibition at 10 µM
Sequence of Melanocortin receptor 3 (P41968 whole entry): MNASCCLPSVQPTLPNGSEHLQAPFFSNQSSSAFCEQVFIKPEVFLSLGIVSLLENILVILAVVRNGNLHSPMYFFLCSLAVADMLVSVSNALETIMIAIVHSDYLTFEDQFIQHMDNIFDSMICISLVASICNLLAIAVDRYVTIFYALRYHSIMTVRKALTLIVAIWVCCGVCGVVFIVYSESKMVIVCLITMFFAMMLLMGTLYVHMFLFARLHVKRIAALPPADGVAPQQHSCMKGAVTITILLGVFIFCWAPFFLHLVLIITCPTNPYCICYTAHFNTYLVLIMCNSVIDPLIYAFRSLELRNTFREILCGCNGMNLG

[4] = target: Melanocortin receptor 4 (Homo sapiens, UniProt P32245); assay type: cell membranes, HEK293, Membrane; details: hek293; note: in other assays of this panel Not Active means under 50% inhibition at 10 µM
Sequence of Melanocortin receptor 4 (P32245 whole entry): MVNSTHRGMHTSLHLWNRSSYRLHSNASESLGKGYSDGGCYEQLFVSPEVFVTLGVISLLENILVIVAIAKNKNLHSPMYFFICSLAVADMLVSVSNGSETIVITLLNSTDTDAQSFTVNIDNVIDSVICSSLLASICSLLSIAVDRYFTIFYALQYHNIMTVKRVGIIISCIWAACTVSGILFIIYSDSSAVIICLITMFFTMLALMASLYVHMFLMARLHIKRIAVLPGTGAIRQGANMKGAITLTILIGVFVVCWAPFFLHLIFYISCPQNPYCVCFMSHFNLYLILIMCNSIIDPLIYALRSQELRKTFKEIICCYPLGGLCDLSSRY

[5] = target: Tyrosine-protein kinase Fyn (Homo sapiens, UniProt P06241); test: biochemical; assay type: cell-based, Insect cells; details: insect cells;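 note: enzymatic inhibition of Fyn kinase activity measured with Poly(Glu:Tyr) as the phosphorylation substrate; in other assays of this panel Not Active means under 50% inhibition at 10 µM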
Sequence of Tyrosine-protein kinase Fyn (P06241 whole entry): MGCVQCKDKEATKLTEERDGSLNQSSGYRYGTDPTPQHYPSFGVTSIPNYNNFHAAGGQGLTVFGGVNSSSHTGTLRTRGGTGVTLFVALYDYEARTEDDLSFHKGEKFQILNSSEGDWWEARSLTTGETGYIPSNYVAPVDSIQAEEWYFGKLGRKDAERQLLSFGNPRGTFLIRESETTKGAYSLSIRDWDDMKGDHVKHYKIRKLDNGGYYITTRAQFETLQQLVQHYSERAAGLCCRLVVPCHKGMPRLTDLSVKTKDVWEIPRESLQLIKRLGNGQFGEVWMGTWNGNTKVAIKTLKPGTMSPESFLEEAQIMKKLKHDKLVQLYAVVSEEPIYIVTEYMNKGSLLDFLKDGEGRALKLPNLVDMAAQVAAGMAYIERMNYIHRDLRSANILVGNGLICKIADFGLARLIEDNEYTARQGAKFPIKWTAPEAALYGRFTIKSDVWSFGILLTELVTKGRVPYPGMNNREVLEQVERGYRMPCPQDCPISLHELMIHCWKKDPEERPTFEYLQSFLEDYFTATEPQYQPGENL

[6] = target: Cytochrome P450 2C19 (Homo sapiens, UniProt P33261); details: bti-tn-5b1-4; note: in other assays of this panel Not Active means under 50% inhibition at 10 µM
Sequence of Cytochrome P450 2C19 (P33261 whole entry): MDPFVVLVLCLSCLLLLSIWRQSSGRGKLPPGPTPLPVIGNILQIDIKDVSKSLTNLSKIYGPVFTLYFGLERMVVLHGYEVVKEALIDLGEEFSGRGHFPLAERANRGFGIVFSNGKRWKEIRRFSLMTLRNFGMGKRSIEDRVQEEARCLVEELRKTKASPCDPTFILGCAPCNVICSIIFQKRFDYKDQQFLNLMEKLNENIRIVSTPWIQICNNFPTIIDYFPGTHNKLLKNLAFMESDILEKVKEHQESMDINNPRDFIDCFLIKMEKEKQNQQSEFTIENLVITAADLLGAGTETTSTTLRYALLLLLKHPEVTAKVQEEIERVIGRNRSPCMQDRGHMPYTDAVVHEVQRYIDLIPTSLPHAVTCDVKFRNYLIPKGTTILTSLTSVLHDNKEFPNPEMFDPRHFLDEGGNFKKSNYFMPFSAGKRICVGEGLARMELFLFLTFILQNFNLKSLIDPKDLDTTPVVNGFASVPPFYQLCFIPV

[7] = target: Cytochrome P450 3A4 (Homo sapiens, UniProt P08684); details: bti-tn-5b1-4; note: in other assays of this panel Not Active means under 50% inhibition at 10 µM
Sequence of Cytochrome P450 3A4 (P08684 whole entry): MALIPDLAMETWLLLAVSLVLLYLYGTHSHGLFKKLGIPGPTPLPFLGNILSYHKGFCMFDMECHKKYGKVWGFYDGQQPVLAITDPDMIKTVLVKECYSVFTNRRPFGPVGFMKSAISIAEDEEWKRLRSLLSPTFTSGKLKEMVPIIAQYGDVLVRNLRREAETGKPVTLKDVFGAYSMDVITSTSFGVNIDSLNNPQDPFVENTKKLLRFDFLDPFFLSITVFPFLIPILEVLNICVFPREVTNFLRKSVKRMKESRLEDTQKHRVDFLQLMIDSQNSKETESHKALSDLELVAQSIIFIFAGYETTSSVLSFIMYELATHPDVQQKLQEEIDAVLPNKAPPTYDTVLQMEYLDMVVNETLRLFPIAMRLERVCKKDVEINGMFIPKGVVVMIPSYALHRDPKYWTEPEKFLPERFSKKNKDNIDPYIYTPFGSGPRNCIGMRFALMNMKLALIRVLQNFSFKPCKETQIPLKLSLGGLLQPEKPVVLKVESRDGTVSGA

Sequence of Cannabinoid receptor 1 (P21554 whole entry): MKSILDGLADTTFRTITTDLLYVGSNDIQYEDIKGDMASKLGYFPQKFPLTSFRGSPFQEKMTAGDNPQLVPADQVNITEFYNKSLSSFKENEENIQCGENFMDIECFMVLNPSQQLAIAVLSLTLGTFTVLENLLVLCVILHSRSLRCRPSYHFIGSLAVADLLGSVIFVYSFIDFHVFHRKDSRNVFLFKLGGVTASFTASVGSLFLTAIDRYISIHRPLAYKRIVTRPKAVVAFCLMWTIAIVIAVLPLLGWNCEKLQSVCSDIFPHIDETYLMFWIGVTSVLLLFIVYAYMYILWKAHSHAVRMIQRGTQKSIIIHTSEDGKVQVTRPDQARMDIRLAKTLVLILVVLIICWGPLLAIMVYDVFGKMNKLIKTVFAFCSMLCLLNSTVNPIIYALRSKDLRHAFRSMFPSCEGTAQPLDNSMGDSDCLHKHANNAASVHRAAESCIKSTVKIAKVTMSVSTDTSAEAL

C[n+]1ccccc1/C=N/O.[Cl-] [PRALIDOXIME CHLORIDE]
Not Active: IC50 [1] | Ki [1] | IC50 [2] | IC50 [3] | IC50 [4] | IC50 [5] | IC50 [6] | Ki [6] | IC50 [7] | Ki [7]

COc1cc2nc(N3CCN(C(=O)c4ccco4)CC3)nc(N)c2cc1OC [PRAZOSIN]
Not Active: IC50 [1] | Ki [1] | IC50 [2] | IC50 [3] | IC50 [4] | IC50 [5] | IC50 [6] | Ki [6] | IC50 [7] | Ki [7]

COc1ccc(C2C(=O)c3ccccc3C2=O)cc1 [ANISINDIONE]
Not Active: IC50 [1] | Ki [1] | IC50 [2] | IC50 [3] | IC50 [4] | IC50 [5] | IC50 [6] | Ki [6] | IC50 [7] | Ki [7]

COC(=O)Nc1nc2ccc([S+]([O-])c3ccccc3)cc2[nH]1 (centres undefined) [OXFENDAZOLE]
Not Active: IC50 [1] | Ki [1] | IC50 [2] | IC50 [3] | IC50 [4] | IC50 [5] | IC50 [6] | Ki [6] | IC50 [7] | Ki [7]

CC(C(=O)O)c1ccc2oc(-c3ccc(Cl)cc3)nc2c1 (centres undefined) [BENOXAPROFEN]
Not Active: IC50 [1] | Ki [1] | IC50 [2] | IC50 [3] | IC50 [4] | IC50 [5] | IC50 [6] | Ki [6] | IC50 [7] | Ki [7]

Cc1cc2c(OCC(CNC(C)(C)C)OC(=O)c3ccccc3)cccc2[nH]1 (centres undefined) [BOPINDOLOL]
Not Active: IC50 [1] | Ki [1] | IC50 [2] | IC50 [3] | IC50 [4] | IC50 [5] | IC50 [6] | Ki [6] | IC50 [7] | Ki [7]

Nc1ccn([C@@H]2O[C@H](CO)[C@@H](O)C2(F)F)c(=O)n1 [GEMCITABINE]
Not Active: IC50 [1] | Ki [1] | IC50 [2] | IC50 [3] | IC50 [4] | IC50 [5] | IC50 [6] | Ki [6] | IC50 [7] | Ki [7]

GADOPENTETATE DIMEGLUMINE
Not Active: IC50 [1] | Ki [1] | IC50 [2] | Ki [2] | IC50 [3] | Ki [3] | IC50 [4] | Ki [4] | IC50 [5] | Ki [5] | IC50 [6] | Ki [6] | IC50 [7] | Ki [7]

C#CC1(O)CC[C@H]2[C@@H]3CCC4=CC(=O)CC[C@@H]4[C@H]3CC[C@@]21CC (some centres undefined) [NORGESTREL]
Not Active: IC50 [1] | Ki [1] | IC50 [2] | IC50 [3] | IC50 [4] | IC50 [5] | IC50 [6] | Ki [6] | IC50 [7] | Ki [7]

C[n+]1ccc(-c2cc[n+](C)cc2)cc1.[Cl-].[Cl-] [PARAQUAT DICHLORIDE]
Not Active: IC50 [1] | Ki [1] | IC50 [2] | IC50 [3] | IC50 [4] | IC50 [5] | IC50 [6] | Ki [6] | IC50 [7] | Ki [7]

C[C@@H]1CC[C@@]2(OC1)O[C@H]1[C@@H](O)[C@H]3[C@@H]4CC[C@H]5C[C@@H](O[C@@H]6O[C@H](CO)[C@H](O[C@@H]7O[C@H](CO)C(O)[C@H](O[C@@H]8OC[C@@H](O)[C@H](O)[C@H]8O)[C@H]7O[C@@H]7O[C@H](CO)[C@H](O)[C@H](O[C@@H]8O[C@H](CO)[C@@H](O)[C@H](O)[C@H]8O)[C@H]7O)[C@H](O)[C@H]6O)[C@H](O)C[C@]5(C)[C@H]4CC[C@]3(C)[C@H]1[C@@H]2C (some centres undefined) [DIGITONIN]
Not Active: IC50 [1] | Ki [1] | IC50 [2] | IC50 [3] | IC50 [4] | IC50 [5] | IC50 [6] | Ki [6] | IC50 [7] | Ki [7]

O=C1CN=C(c2ccccc2Cl)c2cc([N+](=O)[O-])ccc2N1 [CLONAZEPAM]
Not Active: IC50 [1] | Ki [1] | IC50 [2] | IC50 [3] | IC50 [4] | IC50 [5] | IC50 [6] | Ki [6] | IC50 [7] | Ki [7]

C[C@@H](CO)NC(=O)[C@@H]1C=C2c3cccc4[nH]cc(c34)C[C@H]2N(C)C1 [ERGONOVINE]
Not Active: IC50 [1] | Ki [1] | IC50 [2] | IC50 [3] | IC50 [4] | IC50 [5] | IC50 [6] | Ki [6] | IC50 [7] | Ki [7]

CCn1cc(C(=O)O)c(=O)c2cnc(N3CCCC3)nc21 [PIROMIDIC ACID]
Not Active: IC50 [1] | Ki [1] | IC50 [2] | IC50 [3] | IC50 [4] | IC50 [5] | IC50 [6] | Ki [6] | IC50 [7] | Ki [7]

C[C@@H]1C[C@H]2[C@@H]3CCC4=CC(=O)C=C[C@]4(C)[C@@]3(F)[C@@H](O)C[C@]2(C)[C@H]1C(=O)CO [DESOXIMETASONE]
Not Active: IC50 [1] | Ki [1] | IC50 [2] | IC50 [3] | IC50 [4] | IC50 [5] | IC50 [6] | Ki [6] | IC50 [7] | Ki [7]

CN(C)CC[C@@H](c1ccc(Cl)cc1)c1ccccn1 [DEXCHLORPHENIRAMINE]
Not Active: IC50 [1] | Ki [1] | IC50 [2] | IC50 [3] | IC50 [4] | IC50 [5] | IC50 [6] | Ki [6] | IC50 [7] | Ki [7]
